In the supplement of paper PMC10307832:

How the values were obtained:
Test in all cases: relative viability (nuclei count vs DMSO), 5 days (fraction); higher = more cells survive
AZ505 + Dasatinib = compound: C1CCC(CC1)N(CCNCCC2=C3C(=C(C=C2)O)NC(=O)CO3)C(=O)CCNCCC4=CC(=C(C=C4)Cl)Cl [AZ505] + Cc1nc(Nc2ncc(C(=O)Nc3c(C)cccc3Cl)s2)cc(N2CCN(CCO)CC2)n1 [Dasatinib] (partner 0.075 µM)
Procedure, shortened: (§1)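 Lung cancer cell lines in 1536-well plates were dosed by pin tool the day after seeding, either with one drug alone or with a fixed anchor-drug dose plus five library-drug doses (not always all listed) in √10 steps. After 5 days, cells were fixed and their nuclei stained in one step (final 0.05% Triton X-100, 1% formaldehyde, 1 ug/ml Hoechst), then counted on 4× images. Relative viability is the nuclei count in treated wells divided by that in vehicle wells. Values are medians of duplicate plates.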

AZ505 + Lapatinib = compound: C1CCC(CC1)N(CCNCCC2=C3C(=C(C=C2)O)NC(=O)CO3)C(=O)CCNCCC4=CC(=C(C=C4)Cl)Cl [AZ505] + CS(=O)(=O)CCNCc1ccc(-c2ccc3ncnc(Nc4ccc(OCc5cccc(F)c5)c(Cl)c4)c3c2)o1 [Lapatinib] (partner 2 µM)
Procedure, shortened: as §1

Dactolisib + Olaparib = compound: Cn1c(=O)n(-c2ccc(C(C)(C)C#N)cc2)c2c3cc(-c4cnc5ccccc5c4)ccc3ncc21 [Dactolisib] + O=C(c1cc(Cc2n[nH]c(=O)c3ccccc23)ccc1F)N1CCN(C(=O)C2CC2)CC1 [Olaparib] (partner 8 µM)
Procedure, shortened: as §1

Dactolisib + Crizotinib = compound: Cn1c(=O)n(-c2ccc(C(C)(C)C#N)cc2)c2c3cc(-c4cnc5ccccc5c4)ccc3ncc21 [Dactolisib] + C[C@@H](Oc1cc(-c2cnn(C3CCNCC3)c2)cnc1N)c1c(Cl)ccc(F)c1Cl [Crizotinib] (partner 1 µM)
Procedure, shortened: as §1

Cell Line	relative viability (AZ505 + Dasatinib; first compound 0.08 µM)	relative viability (AZ505 + Dasatinib; first compound 0.253 µM)	relative viability (AZ505 + Dasatinib; first compound 0.8 µM)	relative viability (AZ505 + Dasatinib; first compound 2.53 µM)	relative viability (AZ505 + Dasatinib; first compound 8 µM)	relative viability (AZ505 + Lapatinib; first compound 0.08 µM)	relative viability (AZ505 + Lapatinib; first compound 0.253 µM)	relative viability (AZ505 + Lapatinib; first compound 0.8 µM)	relative viability (AZ505 + Lapatinib; first compound 2.53 µM)	relative viability (AZ505 + Lapatinib; first compound 8 µM)	relative viability (Dactolisib + Olaparib; first compound 0.002 µM)	relative viability (Dactolisib + Olaparib; first compound 0.006325 µM)	relative viability (Dactolisib + Olaparib; first compound 0.02 µM)	relative viability (Dactolisib + Olaparib; first compound 0.06325 µM)	relative viability (Dactolisib + Olaparib; first compound 0.2 µM)	relative viability (Dactolisib + Crizotinib; first compound 0.002 µM)	relative viability (Dactolisib + Crizotinib; first compound 0.006325 µM)	relative viability (Dactolisib + Crizotinib; first compound 0.02 µM)	relative viability (Dactolisib + Crizotinib; first compound 0.06325 µM)	relative viability (Dactolisib + Crizotinib; first compound 0.2 µM)
NCI-H596	0.605	0.577	0.591	0.657	0.56	0.977	0.94	0.885	0.876	1.05	0.656	0.719	0.527	0.417	0.329	0.974	0.874	0.742	0.595	0.395
A-427	0.659	0.693	0.622	0.749	0.682	1.1	1.07	0.961	1.03	0.998	0.877	0.675	0.707	0.619	0.495	0.93	0.856	0.844	0.615	0.48
EMC-BAC-2	0.312	0.329	0.322	0.35	0.354	0.819	0.905	0.814	0.837	0.904	0.613	0.433	0.464	0.372	0.356	0.834	0.718	0.708	0.565	0.34
NCI-H441	0.35	0.619	0.659	0.549	0.694						0.784	0.571	0.597	0.248	0.25	0.923	0.64	0.554	0.496	0.271
LCLC-103H	0.407	0.415	0.393	0.481	0.451						0.823	0.743	0.647	0.571	0.395	1.03	0.985	1.08	0.675	0.461
HCC-827	0.399	0.35	0.385	0.313	0.407	0.218	0.191	0.171	0.199	0.191	0.601	0.611	0.608	0.479	0.411	0.978	0.897	0.992	0.809	0.506
NCI-H1355	0.695	0.674	0.603	0.702	0.748	0.865	0.944	0.95	0.855	0.995	0.831	0.684	0.644	0.443	0.27	1.18	1.09	0.99	0.488	0.326
NCI-H1734	0.456	0.467	0.482	0.478	0.417	0.991	1	1.02	1.01	1	0.644	0.548	0.471	0.405	0.266	0.634	0.578	0.454	0.333	0.164
HARA	0.191	0.229	0.367	0.318	0.217	0.636	0.501	0.651	0.802	0.681	1.23	0.858	0.898	0.684	0.24	1.12	1.02	1.04	1.01	0.421
HCC-15	0.513	0.581	0.654	0.524	0.618	0.741	0.809	0.861	0.805	0.871	0.957	0.699	0.699	0.535	0.39	0.826	0.767	0.788	0.556	0.366
LCLC-97TM1	0.77	0.795	0.767	0.674	0.88	1.03	0.948	1.28	1.06	1.3	0.383	0.416	0.319	0.256	0.093	0.509	0.373	0.277	0.149	0.145
RERF-LC-KJ	0.72	0.772	0.763	0.743	0.752	0.767	0.923	0.846	0.87	0.795	1.06	0.893	0.829	0.385	0.403	1.01	0.86	0.84	0.668	0.582
NCI-H1651	0.47	0.416	0.386	0.441	0.49	0.781	0.709	0.833	0.784	0.796	0.187	0.173	0.178	0.208	0.215	0.861	0.891	0.777	0.679	0.57
NCI-H2170	0.541	0.608	0.444	0.695	0.509	0.269	0.278	0.24	0.263	0.275	0.535	0.533	0.601	0.389	0.255	1.2	1.17	0.832	0.677	0.331
NCI-H2023	0.509	0.534	0.58	0.503	0.732	0.674	0.822	0.845	0.917	0.815	0.484	0.43	0.281	0.122	0.0803	0.599	0.576	0.437	0.176	0.129
LC-2-ad	0.578	0.564	0.558	0.604	0.665	0.949	0.957	0.92	1	0.921	0.825	0.749	0.747	0.864	0.852	0.403	0.477	0.505	0.338	0.4
NCI-H1703						1	1.26	1.03	1.2	1.28		0.292	0.389	0.198	0.285	0.581	0.49	0.373	0.35	0.18
NCI-H1437	0.346	0.334	0.58	0.378	0.376	0.765	0.729	0.757	0.738	0.831	0.686	0.6	0.629	0.64	0.543	1.03	0.904	0.902	0.699	0.865
SW 1573	0.476	0.605	0.414	0.594	0.426	1.03	1.04	1.15	1.17	1.09	0.557	0.324	0.418	0.162	0.145	0.989	0.712	0.66	0.572	0.317

Cell Line	relative viability (AZ505 + Dasatinib; first compound 0.08 µM)	relative viability (AZ505 + Dasatinib; first compound 0.253 µM)	relative viability (AZ505 + Dasatinib; first compound 0.8 µM)	relative viability (AZ505 + Dasatinib; first compound 2.53 µM)	relative viability (AZ505 + Dasatinib; first compound 8 µM)	relative viability (AZ505 + Lapatinib; first compound 0.08 µM)	relative viability (AZ505 + Lapatinib; first compound 0.253 µM)	relative viability (AZ505 + Lapatinib; first compound 0.8 µM)	relative viability (AZ505 + Lapatinib; first compound 2.53 µM)	relative viability (AZ505 + Lapatinib; first compound 8 µM)	relative viability (Dactolisib + Olaparib; first compound 0.002 µM)	relative viability (Dactolisib + Olaparib; first compound 0.006325 µM)	relative viability (Dactolisib + Olaparib; first compound 0.02 µM)	relative viability (Dactolisib + Olaparib; first compound 0.06325 µM)	relative viability (Dactolisib + Olaparib; first compound 0.2 µM)	relative viability (Dactolisib + Crizotinib; first compound 0.002 µM)	relative viability (Dactolisib + Crizotinib; first compound 0.006325 µM)	relative viability (Dactolisib + Crizotinib; first compound 0.02 µM)	relative viability (Dactolisib + Crizotinib; first compound 0.06325 µM)	relative viability (Dactolisib + Crizotinib; first compound 0.2 µM)
H3255	0.368	0.316	0.369	0.388	0.483	0.249	0.235	0.268	0.283	0.247	0.559	0.56	0.499	0.475	0.399	0.974	0.813	0.912	0.556	0.391
Calu-6						0.925	1.17	1.07	1.02	1.11	0.553	0.642	0.688	0.469	0.458	0.891	0.766	0.702	0.462	0.325
NCI-H1792	0.734		0.697	0.69	0.684	0.822	0.846	0.861	0.852	0.99	0.427	0.319	0.394	0.135	0.101	1.15	0.971	0.921	0.601	0.294
SK-MES-1	0.373	0.402	0.302	0.353	0.36	0.406	0.434	0.499	0.473	0.445	0.739	0.685	0.531	0.286	0.171	1.14	0.989	0.986	0.632	0.567
NCI-H1650	0.298	0.281	0.37	0.321	0.295	0.699	0.707	0.794	0.742	0.909	1.03	0.704	0.722	0.498	0.568	0.832	0.944	0.718	0.823	0.559
EBC-1						0.267	0.243	0.194	0.19	0.219	0.809	0.645	0.648	0.19	0.176	0.226	0.181	0.208	0.198	0.2
NCI-H1623	0.488	0.466	0.598	0.479	0.612															
NCI-H1648											0.998	0.78	0.799	0.473	0.246					
NCI-H522	0.923	0.843	0.801	0.877	0.948						0.691	0.664	0.68	0.464	0.446					
NCI-H1563	0.456	0.467	0.498	0.481	0.432	0.836	0.882	0.998	0.865	0.905						0.839	0.789	0.76	0.62	0.597
NCI-H1793	0.345	0.439	0.394		0.439	0.541	0.524	1.04	0.75	0.889	0.784	0.299	0.254	0.18	0.169					
NCI-H1299						0.918	1.05	0.923	0.897	0.978	1.01	0.997	1.04	0.568	0.742	0.941	0.964	0.997	0.76	0.649
NCI-H1395	0.427	0.451	0.375	0.419	0.455	0.949	0.952	0.911	1.08	0.992	0.439	0.434	0.428	0.387	0.401					
NCI-H2342	0.312	0.317	0.316	0.346	0.351						0.411	0.369	0.501	0.376	0.382					
A549						0.916	0.931	0.966	0.929	0.955	0.286	0.302	0.244	0.122	0.0942	0.855	0.653	0.569	0.162	0.0827
SW 900	0.584	0.458	0.54	0.919	0.658						1.22	0.853	0.689	0.502	0.424					
IA-LM						0.629	0.935	0.912	0.656	0.884	0.85	0.729	0.783	0.348	0.738	0.903	0.561	0.539	0.162	0.0865
ChaGo-K-1	0.663	0.702	0.616	0.657	0.604						0.404	0.419	0.421	0.457	0.443	1.06	1.03	1.1	1.12	1.13
HCC-44						0.926	1.09	0.974	1.11	1.06	0.969	1.03	0.956	1.01	1.01	0.879	0.763	0.816	0.446	0.414
